Key:
Assay in all cases: Off-target profiling (Supplementary Data 1)
[1] = target: off-target receptors, ion channels, and transporters (Homo sapiens, UniProt P31749); details: TR-FRET Kinome; SignalChem A-1169612.6 .2(Subs Conc)
[2] = target: off-target receptors, ion channels, and transporters (Homo sapiens, UniProt P29376); details: TR-FRET Kinome; Invitrogen A-1224615.7 .0125(Subs Conc)
[3] = target: off-target receptors, ion channels, and transporters (Homo sapiens, UniProt P15056); details: TR-FRET Kinome; Invitrogen A-1196442.2 .05(Subs Conc)
[4] = target: off-target receptors, ion channels, and transporters (Homo sapiens, UniProt P45983); details: TR-FRET Kinome; Invitrogen A-1196442.2 .1(Subs Conc)
Chain of off-target receptors, ion channels, and transporters (Homo sapiens, UniProt P45983) (P45983 whole entry): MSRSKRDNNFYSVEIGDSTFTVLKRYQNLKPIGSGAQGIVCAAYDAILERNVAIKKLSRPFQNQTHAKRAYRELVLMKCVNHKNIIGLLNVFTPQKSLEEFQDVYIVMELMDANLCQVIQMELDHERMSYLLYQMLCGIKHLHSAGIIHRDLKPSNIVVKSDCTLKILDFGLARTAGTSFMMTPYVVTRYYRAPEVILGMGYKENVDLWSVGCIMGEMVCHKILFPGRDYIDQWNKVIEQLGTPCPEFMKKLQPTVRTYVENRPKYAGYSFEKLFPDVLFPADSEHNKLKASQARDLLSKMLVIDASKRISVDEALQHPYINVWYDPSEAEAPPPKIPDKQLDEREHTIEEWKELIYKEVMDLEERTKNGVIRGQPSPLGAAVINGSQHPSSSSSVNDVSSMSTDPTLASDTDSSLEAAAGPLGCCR

[5] = target: off-target receptors, ion channels, and transporters (Homo sapiens, UniProt P35372)
Chain of off-target receptors, ion channels, and transporters (Homo sapiens, UniProt P35372) (P35372 whole entry): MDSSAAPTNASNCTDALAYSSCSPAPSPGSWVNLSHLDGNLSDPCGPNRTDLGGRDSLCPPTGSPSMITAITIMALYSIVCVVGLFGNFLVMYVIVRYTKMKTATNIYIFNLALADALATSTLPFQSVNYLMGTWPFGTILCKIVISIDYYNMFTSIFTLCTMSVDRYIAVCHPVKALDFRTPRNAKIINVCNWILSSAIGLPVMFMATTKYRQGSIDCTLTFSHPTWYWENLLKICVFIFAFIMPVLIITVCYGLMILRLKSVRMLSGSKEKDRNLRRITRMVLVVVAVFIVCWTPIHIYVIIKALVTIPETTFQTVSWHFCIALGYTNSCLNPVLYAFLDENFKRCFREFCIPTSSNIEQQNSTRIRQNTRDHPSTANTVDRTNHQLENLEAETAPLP

[6] = target: off-target receptors, ion channels, and transporters (Homo sapiens, UniProt Q08881); details: TR-FRET Kinome; Invitrogen A-1224615.7 .025(Subs Conc)
[7] = target: off-target receptors, ion channels, and transporters (Homo sapiens, UniProt O00141); details: TR-FRET Kinome; Millipore A-1213250.2 .03(Subs Conc)
Chain of off-target receptors, ion channels, and transporters (Homo sapiens, UniProt O00141) (O00141 whole entry): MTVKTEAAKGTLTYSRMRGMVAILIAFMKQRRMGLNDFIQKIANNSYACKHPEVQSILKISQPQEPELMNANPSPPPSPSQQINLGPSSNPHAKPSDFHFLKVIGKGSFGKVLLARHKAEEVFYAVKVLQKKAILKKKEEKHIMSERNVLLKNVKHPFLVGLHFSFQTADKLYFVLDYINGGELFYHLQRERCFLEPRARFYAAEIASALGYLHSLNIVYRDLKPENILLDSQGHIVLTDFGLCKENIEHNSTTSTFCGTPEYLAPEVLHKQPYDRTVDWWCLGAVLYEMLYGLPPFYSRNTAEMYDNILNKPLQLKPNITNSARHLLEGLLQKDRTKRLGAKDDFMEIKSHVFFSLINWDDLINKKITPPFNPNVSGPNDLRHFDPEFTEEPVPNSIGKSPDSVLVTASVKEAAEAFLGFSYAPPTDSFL

[8] = target: off-target receptors, ion channels, and transporters (Homo sapiens, UniProt Q14164); details: TR-FRET Kinome; Invitrogen A-1167389.7 .003(Subs Conc)
[9] = target: off-target receptors, ion channels, and transporters (Homo sapiens, UniProt P41240); details: TR-FRET Kinome; SignalChem A-1196581.2 .002(Subs Conc)
[10] = target: off-target receptors, ion channels, and transporters (Homo sapiens, UniProt Q9UHD2); details: TR-FRET Kinome; Invitrogen A-1167389.7 .00625(Subs Conc)
[11] = target: off-target receptors, ion channels, and transporters (Homo sapiens, UniProt Q92918); details: TR-FRET Kinome; SignalChem A-1169612.6 .025(Subs Conc)
[12] = target: off-target receptors, ion channels, and transporters (Homo sapiens, UniProt P08581); details: TR-FRET Kinome; Invitrogen A-1196581.2 .003(Subs Conc)
[13] = target: off-target receptors, ion channels, and transporters (Homo sapiens, UniProt Q13464); details: TR-FRET Kinome; Invitrogen A-1213250.2 .1(Subs Conc)
Chain of off-target receptors, ion channels, and transporters (Homo sapiens, UniProt Q13464) (Q13464 whole entry): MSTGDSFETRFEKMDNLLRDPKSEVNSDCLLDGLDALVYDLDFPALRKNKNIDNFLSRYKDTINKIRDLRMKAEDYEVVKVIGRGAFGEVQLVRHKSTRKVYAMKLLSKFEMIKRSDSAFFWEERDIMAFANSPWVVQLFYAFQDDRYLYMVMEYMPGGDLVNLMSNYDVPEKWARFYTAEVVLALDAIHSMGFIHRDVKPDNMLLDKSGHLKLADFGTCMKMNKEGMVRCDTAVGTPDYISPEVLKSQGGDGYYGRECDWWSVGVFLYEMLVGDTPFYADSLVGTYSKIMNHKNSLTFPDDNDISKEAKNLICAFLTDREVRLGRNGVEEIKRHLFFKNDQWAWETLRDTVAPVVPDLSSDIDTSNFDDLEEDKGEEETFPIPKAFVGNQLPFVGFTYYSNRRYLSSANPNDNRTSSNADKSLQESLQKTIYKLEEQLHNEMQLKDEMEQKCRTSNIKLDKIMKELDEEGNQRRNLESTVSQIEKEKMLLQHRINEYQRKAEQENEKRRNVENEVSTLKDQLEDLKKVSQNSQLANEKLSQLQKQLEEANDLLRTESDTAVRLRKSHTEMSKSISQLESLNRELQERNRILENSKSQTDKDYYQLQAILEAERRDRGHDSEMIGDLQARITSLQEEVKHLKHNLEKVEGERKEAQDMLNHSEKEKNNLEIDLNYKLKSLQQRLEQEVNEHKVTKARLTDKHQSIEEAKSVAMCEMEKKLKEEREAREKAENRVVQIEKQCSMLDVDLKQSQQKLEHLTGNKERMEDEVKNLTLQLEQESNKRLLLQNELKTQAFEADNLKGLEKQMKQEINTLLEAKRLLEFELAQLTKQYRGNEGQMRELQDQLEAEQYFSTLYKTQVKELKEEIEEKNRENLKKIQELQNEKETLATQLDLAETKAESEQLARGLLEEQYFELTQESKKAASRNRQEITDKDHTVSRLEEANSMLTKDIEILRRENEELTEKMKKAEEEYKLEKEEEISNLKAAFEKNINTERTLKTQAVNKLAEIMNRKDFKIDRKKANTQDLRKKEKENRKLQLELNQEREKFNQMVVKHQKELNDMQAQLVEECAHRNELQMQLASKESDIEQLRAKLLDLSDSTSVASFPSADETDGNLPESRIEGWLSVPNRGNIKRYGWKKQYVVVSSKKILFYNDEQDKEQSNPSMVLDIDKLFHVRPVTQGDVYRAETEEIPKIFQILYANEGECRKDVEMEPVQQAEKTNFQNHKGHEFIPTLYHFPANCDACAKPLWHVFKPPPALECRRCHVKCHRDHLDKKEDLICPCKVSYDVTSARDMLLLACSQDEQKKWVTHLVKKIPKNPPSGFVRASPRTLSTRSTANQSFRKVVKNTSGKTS

[14] = target: off-target receptors, ion channels, and transporters (Homo sapiens, UniProt O95819); details: TR-FRET Kinome; Invitrogen A-1180691.2 .1(Subs Conc)
[15] = target: off-target receptors, ion channels, and transporters (Homo sapiens, UniProt Q04771); details: TR-FRET Kinome; Invitrogen A-1180691.2 .05(Subs Conc)
[16] = target: off-target receptors, ion channels, and transporters (Homo sapiens, UniProt P57059); details: TR-FRET Kinome; Invitrogen A-1167389.7 .005(Subs Conc)
[17] = target: off-target receptors, ion channels, and transporters (Homo sapiens, UniProt Q14432); details: Bioprofiling 6pt Antag; cAMP
Chain of off-target receptors, ion channels, and transporters (Homo sapiens, UniProt Q14432) (Q14432 whole entry): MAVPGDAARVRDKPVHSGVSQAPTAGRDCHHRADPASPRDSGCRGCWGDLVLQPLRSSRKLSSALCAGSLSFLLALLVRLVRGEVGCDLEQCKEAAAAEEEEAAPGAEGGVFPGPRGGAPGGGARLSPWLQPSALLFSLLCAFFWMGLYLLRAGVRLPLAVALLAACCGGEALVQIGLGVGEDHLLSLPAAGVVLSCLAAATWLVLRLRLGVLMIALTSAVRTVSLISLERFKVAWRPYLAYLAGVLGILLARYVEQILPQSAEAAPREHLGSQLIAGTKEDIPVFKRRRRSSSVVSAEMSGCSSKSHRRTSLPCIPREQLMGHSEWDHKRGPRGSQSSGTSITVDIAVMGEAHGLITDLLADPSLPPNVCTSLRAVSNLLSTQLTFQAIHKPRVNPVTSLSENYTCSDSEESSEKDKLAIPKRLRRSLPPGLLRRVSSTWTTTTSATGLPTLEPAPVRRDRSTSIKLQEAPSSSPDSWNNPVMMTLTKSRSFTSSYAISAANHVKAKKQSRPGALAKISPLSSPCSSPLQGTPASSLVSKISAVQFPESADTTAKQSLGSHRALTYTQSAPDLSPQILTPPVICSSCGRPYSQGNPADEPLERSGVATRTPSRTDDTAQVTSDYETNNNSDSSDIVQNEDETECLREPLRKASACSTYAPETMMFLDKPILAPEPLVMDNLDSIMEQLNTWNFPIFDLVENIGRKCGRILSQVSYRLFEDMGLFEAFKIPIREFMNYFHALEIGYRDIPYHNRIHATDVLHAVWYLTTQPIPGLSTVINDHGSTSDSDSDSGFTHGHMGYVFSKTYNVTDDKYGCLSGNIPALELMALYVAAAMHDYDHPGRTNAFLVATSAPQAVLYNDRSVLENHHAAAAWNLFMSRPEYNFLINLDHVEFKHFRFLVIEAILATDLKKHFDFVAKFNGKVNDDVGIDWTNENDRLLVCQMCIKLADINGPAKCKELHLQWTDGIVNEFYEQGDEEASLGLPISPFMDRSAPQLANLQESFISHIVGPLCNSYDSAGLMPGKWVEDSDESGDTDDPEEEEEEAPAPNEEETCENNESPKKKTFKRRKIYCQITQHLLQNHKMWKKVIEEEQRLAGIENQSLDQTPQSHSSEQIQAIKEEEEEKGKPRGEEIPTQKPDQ

[18] = target: off-target receptors, ion channels, and transporters (Homo sapiens, UniProt P07948); details: TR-FRET Kinome, SignalChem A-1196581.2 .002(Subs Conc)
Chain of off-target receptors, ion channels, and transporters (Homo sapiens, UniProt P07948) (P07948 2-512): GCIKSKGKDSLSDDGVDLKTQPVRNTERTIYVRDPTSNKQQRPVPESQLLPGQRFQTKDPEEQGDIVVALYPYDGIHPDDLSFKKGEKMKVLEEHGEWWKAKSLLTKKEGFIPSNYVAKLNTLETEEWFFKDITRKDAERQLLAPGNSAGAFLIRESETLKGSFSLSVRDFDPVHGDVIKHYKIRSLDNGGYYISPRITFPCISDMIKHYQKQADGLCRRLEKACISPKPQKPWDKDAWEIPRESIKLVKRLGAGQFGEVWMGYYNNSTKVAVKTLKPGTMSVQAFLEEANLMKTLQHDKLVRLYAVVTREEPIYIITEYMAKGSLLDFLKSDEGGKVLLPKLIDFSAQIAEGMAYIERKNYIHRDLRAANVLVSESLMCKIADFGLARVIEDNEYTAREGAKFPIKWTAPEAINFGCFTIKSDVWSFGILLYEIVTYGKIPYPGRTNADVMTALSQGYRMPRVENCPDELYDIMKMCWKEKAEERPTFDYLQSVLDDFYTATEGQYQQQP

[19] = target: off-target receptors, ion channels, and transporters (Homo sapiens, UniProt O15530); details: TR-FRET Kinome; Invitrogen A-1167389.7 .015(Subs Conc)
[20] = target: off-target receptors, ion channels, and transporters (Homo sapiens, UniProt P34947); details: TR-FRET Kinome; Invitrogen A-1180691.2 .1(Subs Conc)
[21] = target: off-target receptors, ion channels, and transporters (Homo sapiens, UniProt P30411)
Chain of off-target receptors, ion channels, and transporters (Homo sapiens, UniProt P30411) (P30411 whole entry): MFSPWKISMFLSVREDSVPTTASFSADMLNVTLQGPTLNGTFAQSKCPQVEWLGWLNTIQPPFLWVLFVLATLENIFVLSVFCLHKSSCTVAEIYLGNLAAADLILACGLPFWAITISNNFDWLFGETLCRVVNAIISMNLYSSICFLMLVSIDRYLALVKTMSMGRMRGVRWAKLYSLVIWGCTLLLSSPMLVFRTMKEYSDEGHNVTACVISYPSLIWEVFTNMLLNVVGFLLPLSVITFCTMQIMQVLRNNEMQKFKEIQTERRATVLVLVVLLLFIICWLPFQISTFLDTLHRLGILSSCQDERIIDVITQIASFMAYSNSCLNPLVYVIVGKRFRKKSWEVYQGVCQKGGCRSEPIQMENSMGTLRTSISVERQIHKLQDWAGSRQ

[22] = target: off-target receptors, ion channels, and transporters (Homo sapiens, UniProt P48729); details: TR-FRET Kinome; Invitrogen A-1180691.2 .05(Subs Conc)
Chain of off-target receptors, ion channels, and transporters (Homo sapiens, UniProt P48729) (P48729 whole entry): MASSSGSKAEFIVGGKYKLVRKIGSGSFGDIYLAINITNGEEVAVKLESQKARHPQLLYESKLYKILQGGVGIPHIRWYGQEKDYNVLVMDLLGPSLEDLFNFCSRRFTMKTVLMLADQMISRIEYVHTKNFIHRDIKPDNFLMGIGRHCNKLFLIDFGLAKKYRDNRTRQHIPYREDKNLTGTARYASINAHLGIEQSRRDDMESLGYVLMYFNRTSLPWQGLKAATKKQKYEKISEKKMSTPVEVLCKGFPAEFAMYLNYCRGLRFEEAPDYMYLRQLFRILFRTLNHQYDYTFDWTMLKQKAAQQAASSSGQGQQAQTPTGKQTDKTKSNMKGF

[23] = target: off-target receptors, ion channels, and transporters (Homo sapiens, UniProt P51812); details: TR-FRET Kinome; Invitrogen A-1169612.6 .0015(Subs Conc)
[24] = target: off-target receptors, ion channels, and transporters (Homo sapiens, UniProt P00519); details: TR-FRET Kinome; Invitrogen A-1196581.2 .007(Subs Conc)
[25] = target: off-target receptors, ion channels, and transporters (Homo sapiens, UniProt P06239); details: TR-FRET Kinome; Invitrogen A-1167389.7 .1(Subs Conc)

SMILES: Cc1c(Cl)c2c(Cl)c(C)c1-c1c(-c3ccc(F)cc3)sc3ncnc(c13)O[C@@H](C(=O)O)Cc1cc(ccc1OCc1ccnc(-c3ccc(OC[C@H]4COCCO4)cc3)n1)OC[C@@H](CN1CCN(C)CC1)O2 [ABBV-467]
- Akt1 - IC50 [1]: > 10 µM
- LTK - IC50 [2]: > 10 µM
- BRAF - IC50 [3]: > 10 µM
- JNK1 - IC50 [4]: > 10 µM
- Opioid mu CHO Human - EC50 ([5]; Bioprofiling 6pt Ag): > 10 µM
- Opioid mu CHO Human - IC50 ([5]; Bioprofiling 6pt Antag, DAMGO): > 10 µM
- ITK - IC50 [6]: > 10 µM
- SGK1 - IC50 [7]: > 10 µM
- IKKE - IC50 [8]: > 10 µM
- CSK - IC50 [9]: > 10 µM
- TBK1 - IC50 [10]: > 10 µM
- MAP4K1 - IC50 [11]: > 10 µM
- cMET - IC50 [12]: > 10 µM
- Rock1 - IC50 [13]: > 10 µM
- MAP4K4 - IC50 [14]: > 10 µM
- ACVR1 - IC50 [15]: > 10 µM
- SIK1 - IC50 [16]: > 10 µM
- PDE3A Human - IC50 [17]: > 10 µM
- IC50 ([18]; read-out: LYN-B - IC50): > 10 µM
- Ki ([18]; read-out: LYN-B - Ki): > 8.15 µM
- PDK1 - IC50 [19]: > 10 µM
- GRK5 - IC50 [20]: > 10 µM
- B2 CHO Human - EC50 ([21]; Bioprofiling 6pt Ag): > 10 µM
- B2 CHO Human - IC50 ([21]; Bioprofiling 6pt Antag, Bradykinin): >10.00 µM
- Ck1alpha1 - IC50 [22]: > 10 µM
- Rsk2 - IC50 [23]: > 10 µM
- Abl - IC50 [24]: > 10 µM
- Lck - IC50 [25]: > 10 µM
